Source: patent US8410107B2, “N-pyridin-3-yl or N-pyrazin-2-yl carboxamides” (Hoffmann-La Roche Inc., priority 2010, dated 2013)

Legend:
human CB1 receptor = target: T1, human CB1 receptor (Homo sapiens, UniProt P21554); assay: CB1 receptor affinity ([3H]-CP-55,940 displacement, HEK cell membranes); assay type: binding; conditions: displacement of radioligand [3H]-CP-55,940
T1 construct: expressed in transfected cells; host or cells: human embryonic kidney (HEK) cells, Semliki Forest Virus system, membrane preparations
T1 sequence (P21554 whole entry): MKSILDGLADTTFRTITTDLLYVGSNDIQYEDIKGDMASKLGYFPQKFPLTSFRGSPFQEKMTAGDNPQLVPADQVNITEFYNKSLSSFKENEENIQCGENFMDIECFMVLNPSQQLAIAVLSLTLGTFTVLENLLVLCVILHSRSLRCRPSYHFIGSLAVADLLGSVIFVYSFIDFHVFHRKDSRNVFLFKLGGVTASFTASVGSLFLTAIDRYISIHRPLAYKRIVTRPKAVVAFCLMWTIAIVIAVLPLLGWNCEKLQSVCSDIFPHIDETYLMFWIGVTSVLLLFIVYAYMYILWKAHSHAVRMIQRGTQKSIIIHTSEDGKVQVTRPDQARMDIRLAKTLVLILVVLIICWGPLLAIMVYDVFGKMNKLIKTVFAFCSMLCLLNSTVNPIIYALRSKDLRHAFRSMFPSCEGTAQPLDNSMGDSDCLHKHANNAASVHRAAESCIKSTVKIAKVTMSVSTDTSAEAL
Procedure: (§1) The affinity of the compounds of the invention for cannabinoid receptors was determined using membrane preparations of human embryonic kidney (HEK) cells in which the human CB1 receptor is transiently transfected using a Semliki Forest Virus system in conjunction with [3H]-CP-55,940 as radioligand. After incubation of freshly prepared cell membrane preparation with the [^3H]-ligand, with or without addition of compounds of the invention, separation of bound and free ligand was performed by filtration over glass fiber filters. Radioactivity on the filter was measured by scintillation counting.
(§2) The ability of the compounds to displace the radioligand [^3H]-CP-55,940 was measured at a concentration of 10 μM and values provided as [% inhibition @ 10 μM] both for the CB1 and CB2 receptor assay, The lower % inhibition is, the lower the likelihood of side effects based on CB1 or CB2 receptor inhibition is.

ABCA1 protein = assay: Detection of upregulation of ABCA1 protein in cells (ApoA-I binding, high content image analysis); assay type: cell-based; conditions: THP-1 macrophage cells; for % increase of ABCA1 at 3 μM: 24 hrs with compound; for EC50: ABCA1 protein increasing efficacy
Procedure: The ability of compounds of the invention to increase the level of ABCA1 protein is determined in replicate cultures of THP-1 macrophage cells in 96-well microplates. Cells are plated at an initial density of 100,000 cells/well in 100 μl medium and differentiated to adherent macrophages with the addition of PMA (100 nM) for 68 hrs in 10% fetal bovine serum, 3 μl/L of b-mercaptoethanol, RPMI-1640 medium. Then, cells are incubated with RPMI-1640 medium containing 1% FCS, 25 μg/ml acetylated LDL, for 24 hours at 37°. Following incubation with acetylated LDL, cells are washed twice with 50 μl PBS and incubated with 100 μl of RPMI-1640 medium containing the compound of interest solubilized in DMSO for an additional 24 hrs. The final DMSO concentration in presence of cells is maintained at 0.5%. ApoA-I binding assay using High Content Image Analysis is initiated by replacing with fresh medium, RPMI without Phenol Red, 0.2% BSA containing AlexaFluor®647 labeled ApoA-I for 2 h/37° C./5% CO2. Then, cells are fixed with 4% Formaldehyde inPBS (15 min, RT). Following Nuclei are stained with Hoechst solution (3 μM PBS) and Cytoplasm with Cell Mask Blue (2 μg/ml PBS), 15 min, RT. Finally the stained cells are fixed with a second round of formaldehyde treatment. Fixed stained cells are washed and kept in PBS at 4° C. and can be read immediately until one month after preparation.
The Alexa Fluor 647-labeled Apolipoprotein A-I (20 nM) was prepared as follows: Human recombinant Apolipoprotein A-I (ApoA-I) was exchanged to a buffer of 0.02 M NaHCO3 at pH 8.2 on an NAP desalting column (GE Healthcare) and brought to a concentration to 40 μM (1.13 mg/ml) by adjustment with the same buffer. The ApoA-I was fluorescently labeled by incubation with Alexa Fluor carboxylic acid succimidyl ester. (Alexa Fluor 647, Invitrogen A-20006) at a 2:1 molar ratio (Alexa to ApoA-I) for 1 h under shaking at RT. The remaining unconjugated label was removed by buffer exchange to 0.02M NaHCO3 at pH 8.2.
Imaging and data collection were performed on an OPERA confocal microplate imaging reader using a 20× water immersion objective and UV360 or 405 laser to identify the cell nuclei and a 635 laser to identify the fluorescent ApoA-I. Eight fields of view are captured per well. Image capture and analysis was performed with the Acapella software. Background fluorescence detected in control wells without ApoA-I was subtracted.
Using XLfit3 program (ID Business Solutions Ltd. UK), the model 205 for Dose Response One Site is used to calculate the EC50 values. The compounds of the present invention increase the level of ABCA1 protein by more than 45% at a concentration of 3 μM. […] Even more preferably, the compounds of the present invention have EC50 values in a range of 0.1 μM to 3 μM.

human CB2 receptor = target: T2, human CB2 receptor (Homo sapiens, UniProt P34972); assay: CB2 receptor affinity ([3H]-CP-55,940 displacement, HEK cell membranes); assay type: binding; conditions: displacement of radioligand [3H]-CP-55,940
T2 construct: expressed in transfected cells; host or cells: human embryonic kidney (HEK) cells, Semliki Forest Virus system, membrane preparations
T2 sequence (P34972 whole entry): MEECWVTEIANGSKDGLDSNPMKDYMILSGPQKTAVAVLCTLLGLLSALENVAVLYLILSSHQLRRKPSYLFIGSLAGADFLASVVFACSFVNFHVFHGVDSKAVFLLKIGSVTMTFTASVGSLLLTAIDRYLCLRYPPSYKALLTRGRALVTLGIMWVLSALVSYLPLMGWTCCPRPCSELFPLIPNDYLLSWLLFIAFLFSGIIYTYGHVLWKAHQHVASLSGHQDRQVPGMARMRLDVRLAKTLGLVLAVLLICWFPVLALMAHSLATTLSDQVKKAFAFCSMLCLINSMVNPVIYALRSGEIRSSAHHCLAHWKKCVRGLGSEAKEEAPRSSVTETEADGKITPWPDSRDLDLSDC
Procedure: as §1, with “cannabinoid CB2” for “cannabinoid”, “CB2” for “CB1”, “[^3H]-CP-55,940” for “[3H]-CP-55,940”
as §2

With `O=C(Nc1cnc(OCC(F)(F)F)c(-c2ccc(Cl)cc2)c1)[C@H]1CCCO1` (racemic) [Example 70, (RS)-N-(5-(4-chlorophenyl)-6-(2,2,2-trifluoroethoxy)pyridin-3-yl)tetrahydrofuran-2-carboxamide] the inhibition at 10 µM (human CB1 receptor) was 49%, the “% increase of ABCA1 at 3 μM” value (ABCA1 protein) was over 45% @ 3 μM and the inhibition at 10 µM (human CB2 receptor) was 15%.

For `O=C(Nc1cnc(OCC(F)(F)F)c(-c2ccc(Cl)cc2)c1)[C@H]1CCOC1` (racemic) [Example 71, (SR)-N-(5-(4-chlorophenyl)-6-(2,2,2-trifluoroethoxy)pyridin-3-yl)-tetrahydrofuran-3-carboxamide], the inhibition at 10 µM (human CB1 receptor) was 41%, the “% increase of ABCA1 at 3 μM” value (ABCA1 protein) was over 45% @ 3 μM and the inhibition at 10 µM (human CB2 receptor) was 4%.

With `CCCCC(=O)Nc1cnc(OCC(F)(F)F)c(-c2ccc(Cl)cc2)c1` [Example 1, pentanoic acid[5-(4-chloro-phenyl)-6-(2,2,2-trifluoro-ethoxy)-pyridin-3-yl]-amide] the inhibition at 10 µM (human CB1 receptor) was 45%, the “% increase of ABCA1 at 3 μM” value (ABCA1 protein) was over 45% @ 3 μM and the inhibition at 10 µM (human CB2 receptor) was 9.2%.

With `O=C(Nc1cnc(OCC(F)(F)F)c(-c2ccc(Cl)cc2)c1)c1ccccc1` [Example 2, N-[5-(4-chloro-phenyl)-6-(2,2,2-trifluoro-ethoxy)-pyridin-3-yl]-benzamide] the inhibition at 10 µM (human CB1 receptor) was 33%, the EC50 (ABCA1 protein) was 2690 nM and the inhibition at 10 µM (human CB2 receptor) was 4.9%.

Work on `O=C(Nc1cnc(OCC(F)(F)F)c(-c2ccc(Cl)cc2)c1)c1cccnc1` [Example 3, N-[5-(4-chloro-phenyl)-6-(2,2,2-trifluoro-ethoxy)-pyridin-3-yl]-nicotinamide] yielded an inhibition at 10 µM (human CB1 receptor) of 29%, an EC50 (ABCA1 protein) of 2280 nM and an inhibition at 10 µM (human CB2 receptor) of 8%.

With `O=C(Nc1cnc(OCC(F)(F)F)c(-c2ccc(Cl)cc2)c1)c1ccncc1` [Example 4, N-[5-(4-chloro-phenyl)-6-(2,2,2-trifluoro-ethoxy)-pyridin-3-yl]-isonicotinamide] the inhibition at 10 µM (human CB1 receptor) was 36%, the “% increase of ABCA1 at 3 μM” value (ABCA1 protein) was over 45% @ 3 μM and the inhibition at 10 µM (human CB2 receptor) was 1.9%.

With `CC(=O)Nc1cnc(OCC(F)(F)F)c(-c2ccc(Cl)cc2)c1` [Example 5, N-[5-(4-chloro-phenyl)-6-(2,2,2-trifluoro-ethoxy)-pyridin-3-yl]-acetamide] the inhibition at 10 µM (human CB1 receptor) was 19%, the “% increase of ABCA1 at 3 μM” value (ABCA1 protein) was over 45% @ 3 μM and the inhibition at 10 µM (human CB2 receptor) was -5.4%.

For `CCCC(=O)Nc1cnc(OCC(F)(F)F)c(-c2ccc(Cl)cc2)c1` [Example 6, N-[5-(4-Chloro-phenyl)-6-(2,2,2-trifluoro-ethoxy)-pyridin-3-yl]-butyramide], the inhibition at 10 µM (human CB1 receptor) was 47%, the “% increase of ABCA1 at 3 μM” value (ABCA1 protein) was over 45% @ 3 μM and the inhibition at 10 µM (human CB2 receptor) was 11%.

With `O=C(Nc1cnc(OCC(F)(F)F)c(-c2ccc(Cl)cc2)c1)c1ccccn1` [Example 7, pyridine-2-carboxylic acid[5-(4-chloro-phenyl)-6-(2,2,2-trifluoro-ethoxy)-pyridin-3-yl]-amide] the inhibition at 10 µM (human CB1 receptor) was 13%, the “% increase of ABCA1 at 3 μM” value (ABCA1 protein) was over 45% @ 3 μM and the inhibition at 10 µM (human CB2 receptor) was 1.2%.

Molecule `O=C(Nc1cnc(OCC2CC2)c(-c2ccc(Cl)cc2)c1)c1ccccc1` [Example 8, N-[5-(4-chloro-phenyl)-6-cyclopropylmethoxy-pyridin-3-yl]-benzamide] has an inhibition at 10 µM (human CB1 receptor) of 52%, an EC50 (ABCA1 protein) of 2770 nM and an inhibition at 10 µM (human CB2 receptor) of 15%.

In the case of `CC(=O)Nc1cnc(OCC2CC2)c(-c2ccc(Cl)cc2)c1` [Example 9, N-[5-(4-chloro-phenyl)-6-cyclopropylmethoxy-pyridin-3-yl]-acetamide], the inhibition at 10 µM (human CB1 receptor) is reported as 24%, the “% increase of ABCA1 at 3 μM” value (ABCA1 protein) is reported as over 45% @ 3 μM and the inhibition at 10 µM (human CB2 receptor) is reported as 9.6%.

`O=C(Nc1cnc(OCC2CC2)c(-c2ccc(Cl)cc2)c1)c1cccnc1` [Example 10, N-[5-(4-chloro-phenyl)-6-cyclopropylmethoxy-pyridin-3-yl]-nicotinamide] gave an inhibition at 10 µM (human CB1 receptor) of 36%, an EC50 (ABCA1 protein) of 6510 nM and an inhibition at 10 µM (human CB2 receptor) of 28%.

For `O=C(Nc1cnc(OCC2CC2)c(-c2ccc(Cl)cc2)c1)c1ccncc1` [Example 11, N-[5-(4-chloro-phenyl)-6-cyclopropylmethoxy-pyridin-3-yl]-isonicotinamide], the inhibition at 10 µM (human CB1 receptor) was 25%, the “% increase of ABCA1 at 3 μM” value (ABCA1 protein) was over 45% @ 3 μM and the inhibition at 10 µM (human CB2 receptor) was -1.2%.

In the case of `O=C(Nc1cnc(OCC(F)(F)F)c(-c2ccc(Cl)cc2)c1)c1cnccn1` [Example 12, pyrazine-2-carboxylic acid[5-(4-chloro-phenyl)-6-(2,2,2-trifluoro-ethoxy)-pyridin-3-yl]-amide], the inhibition at 10 µM (human CB1 receptor) is reported as 22%, the “% increase of ABCA1 at 3 μM” value (ABCA1 protein) is reported as over 45% @ 3 μM and the inhibition at 10 µM (human CB2 receptor) is reported as 4%.

For `Cc1cc(C(=O)Nc2cnc(OCC(F)(F)F)c(-c3ccc(Cl)cc3)c2)n(C)n1` [Example 13, 2,5-dimethyl-2H-pyrazole-3-carboxylic acid[5-(4-chloro-phenyl)-6-(2,2,2-trifluoro-ethoxy)-pyridin-3-yl]-amide], the inhibition at 10 µM (human CB1 receptor) was 16%, the “% increase of ABCA1 at 3 μM” value (ABCA1 protein) was over 45% @ 3 μM and the inhibition at 10 µM (human CB2 receptor) was 3%.

`Cc1nocc1C(=O)Nc1cnc(OCC(F)(F)F)c(-c2ccc(Cl)cc2)c1` [Example 14, 3-methyl-isoxazole-4-carboxylic acid[5-(4-chloro-phenyl)-6-(2,2,2-trifluoro-ethoxy)-pyridin-3-yl]-amide] was tested, and the inhibition at 10 µM (human CB1 receptor) was 38%, the “% increase of ABCA1 at 3 μM” value (ABCA1 protein) was over 45% @ 3 μM and the inhibition at 10 µM (human CB2 receptor) was 10%.

For `Cn1ccc(C(=O)Nc2cnc(OCC(F)(F)F)c(-c3ccc(Cl)cc3)c2)n1` [Example 15, 1-methyl-1H-pyrazole-3-carboxylic acid[5-(4-chloro-phenyl)-6-(2,2,2-trifluoro-ethoxy)-pyridin-3-yl]-amide], the inhibition at 10 µM (human CB1 receptor) was 27%, the “% increase of ABCA1 at 3 μM” value (ABCA1 protein) was over 45% @ 3 μM and the inhibition at 10 µM (human CB2 receptor) was 2%.

For `Cc1cc(C(=O)Nc2cnc(OCC(F)(F)F)c(-c3ccc(Cl)cc3)c2)no1` [Example 16, 5-methyl-3-isoxazolecarboxylic acid[5-(4-chloro-phenyl)-6-(2,2,2-trifluoro-ethoxy)-pyridin-3-yl]-amide], the inhibition at 10 µM (human CB1 receptor) was 34%, the EC50 (ABCA1 protein) was 6050 nM and the inhibition at 10 µM (human CB2 receptor) was -1%.

`O=C(Nc1cnc(OCC(F)(F)F)c(-c2ccc(Cl)cc2)c1)c1cccnn1` [Example 17, 3-pyridazinecarboxylic acid[5-(4-chloro-phenyl)-6-(2,2,2-trifluoro-ethoxy)-pyridin-3-yl]-amide] was tested, and the inhibition at 10 µM (human CB1 receptor) was 16%, the EC50 (ABCA1 protein) was 2310 nM and the inhibition at 10 µM (human CB2 receptor) was -3%.

With `Cc1cnccc1C(=O)Nc1cnc(OCC(F)(F)F)c(-c2ccc(Cl)cc2)c1` [Example 18, N-[5-(4-chloro-phenyl)-6-(2,2,2-trifluoro-ethoxy)-pyridin-3-yl]-3-methyl-4-pyridinecarboxylic acid amide] the inhibition at 10 µM (human CB1 receptor) was 37%, the “% increase of ABCA1 at 3 μM” value (ABCA1 protein) was over 45% @ 3 μM and the inhibition at 10 µM (human CB2 receptor) was 3%.

`O=C(Nc1cnc(OCC(F)(F)F)c(-c2ccc(Cl)cc2)c1)c1cncnc1` [Example 19, 5-pyrimidinecarboxylic acid[5-(4-chloro-phenyl)-6-(2,2,2-trifluoro-ethoxy)-pyridin-3-yl]-amide] showed an inhibition at 10 µM (human CB1 receptor) of 25%, an EC50 (ABCA1 protein) of 1390 nM and an inhibition at 10 µM (human CB2 receptor) of -10%.
